One substance from article PMC10609143, “Inhibitory Mechanisms of Lekethromycin in Dog Liver Cytochrome P450 Enzymes Based on UPLC-MS/MS Cocktail Method” (Molecules, 2023) can be followed below.

For orientation: IC50 means the concentration needed to halve the response being measured. For orientation: Ki means the equilibrium dissociation constant of an inhibitor or competing ligand from its target.

What all share (type): in vitro ADME
The target in one data set is T1, CYP2E1 (Canis lupus familiaris, UniProt Q9MZY0).
T1 construct: from tissue; host or cells: dog liver microsomes (DLM)
In words: CYP450 inhibition study of LKMS in dog liver microsomes, chlorzoxazone hydroxylation. To be noted: probe at Km, 15 min, 0.2 mg/mL protein, n = 3. The method, then:
(§1) All experiments were performed in triplicate.
(§2) Inhibition assessment of CYP450 isoforms in DLM was performed with a fixed concentration of model probe substrates and a series of concentrations of LKMS ranging from 0 to 80 μM. The concentration of probe substrates was at a concentration of Km in this study. […] Mode inhibition was examined based on a primary Lineweaver–Burk plot and a secondary plot.
(§3) The IC50 values and enzyme kinetic parameters were determined by plotting relative activities over the logarithm of the concentration of LKMS using GraphPad (v.8.0.2, CA, USA). The mode of the inhibitor was analyzed using a Lineweaver–Burk plot and a secondary plot for inhibition constant (Ki and αKi) values. All experimental data are shown as mean ± standard deviation (SD).

Data set [1] has as its target T2, CYP2B6 (Canis lupus familiaris, UniProt P24460).
T2 construct: from tissue; host or cells: dog liver microsomes (DLM)
T2 sequence (P24460 1-494): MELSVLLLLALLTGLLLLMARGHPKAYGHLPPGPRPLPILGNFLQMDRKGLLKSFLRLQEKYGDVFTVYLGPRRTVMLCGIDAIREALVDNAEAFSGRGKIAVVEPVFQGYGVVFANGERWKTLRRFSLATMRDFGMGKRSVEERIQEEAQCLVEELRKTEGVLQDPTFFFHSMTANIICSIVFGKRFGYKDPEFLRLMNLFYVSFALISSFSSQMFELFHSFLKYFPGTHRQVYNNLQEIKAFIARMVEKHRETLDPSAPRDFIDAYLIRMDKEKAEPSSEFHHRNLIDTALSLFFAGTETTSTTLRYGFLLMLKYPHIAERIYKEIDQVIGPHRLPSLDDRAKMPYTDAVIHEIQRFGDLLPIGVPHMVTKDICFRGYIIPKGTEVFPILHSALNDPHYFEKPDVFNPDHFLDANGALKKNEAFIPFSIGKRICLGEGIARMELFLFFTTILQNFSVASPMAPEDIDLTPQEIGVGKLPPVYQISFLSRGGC
The data set can be described thus: CYP450 inhibition study of LKMS in dog liver microsomes, bupropion hydroxylation. On the procedure: as §1, §2, §3

For data set [2], the system named is CYP450 enzymes in dog liver microsomes. In words: Chemical inhibition experiments: LKMS disappearance rate with selective CYP450 inhibitors. To be noted: n = 3. On the procedure: The effect of selective inhibitors on the rate of LKMS disappearance was investigated to identify the metabolizing enzymes of LKMS. The total volume of the incubation system was 200 μL, which contained the tested compound, inhibitors, PBS (pH = 7.4), LKMS, and NADPH. The study was performed via incubation with different inhibitors of CYP450 as follows: α-naphthoflavone (CYP1A2, 2 μM), pilocarpine (CYP2A6, 8 μM), Thio-TEPA (CYP2B6, 6 μM), sulfaphenazole (CYP2C9, 6 μM), quinidine (CYP2D6, 8 μM), sodium diethyldithiocarbamate (CYP2E1, 20 μM), and ketoconazole (CYP3A4, 2 μM). The sample incubated without inhibitors was used as a negative control. The sample was incubated with dimethyl sulfoxide (DMSO) (25%) as a positive control in this study. Following this pilot, confirmatory experiments were conducted by incubating with DLM in the presence of specific CYP450 inhibitors.

The target in data set [3] is T3, CYP2D6 (Canis lupus familiaris, UniProt Q29473).
T3 construct: from tissue; host or cells: dog liver microsomes (DLM)
T3 sequence (Q29473 1-500): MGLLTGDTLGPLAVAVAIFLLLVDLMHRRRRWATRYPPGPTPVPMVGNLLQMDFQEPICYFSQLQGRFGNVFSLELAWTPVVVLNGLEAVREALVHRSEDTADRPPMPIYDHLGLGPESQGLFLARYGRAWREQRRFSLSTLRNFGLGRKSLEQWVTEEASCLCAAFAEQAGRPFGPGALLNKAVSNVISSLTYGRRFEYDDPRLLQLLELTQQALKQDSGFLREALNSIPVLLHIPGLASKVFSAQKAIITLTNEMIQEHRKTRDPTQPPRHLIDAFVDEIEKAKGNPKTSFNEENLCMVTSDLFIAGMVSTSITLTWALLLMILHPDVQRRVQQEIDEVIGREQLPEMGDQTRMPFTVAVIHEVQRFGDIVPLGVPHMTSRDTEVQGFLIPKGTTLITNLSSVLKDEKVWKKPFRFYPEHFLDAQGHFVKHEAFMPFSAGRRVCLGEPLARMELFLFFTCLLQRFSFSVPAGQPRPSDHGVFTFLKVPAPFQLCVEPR
In words: CYP450 inhibition study of LKMS in dog liver microsomes, dextromethorphan O-demethylation. On the procedure:
as §1, §2, §3
On the technique in general: Microsomes from liver hold many membrane-bound enzymes, among them those of drug oxidation.

Data set [4] is described as follows: CYP450 inhibition study of LKMS in dog liver microsomes, testosterone 6β-hydroxylation. To be noted: probe at Km, 15 min, 0.2 mg/mL protein, n = 3. The method, then:
as §1, §2, §3

The subject of the next data set is CYP2C9. The data set can be described thus: CYP450 inhibition study of LKMS in dog liver microsomes, tolbutamide 4-hydroxylation. To be noted: probe at Km, 15 min, 0.2 mg/mL protein, n = 3. The method, then:
as §1, §2, §3

In another data set the test system is CYP2A6. In words: Irreversible inhibition (IC50 shift) in dog liver microsomes. On the procedure:
(§4) To characterize the reversible or irreversible mechanism of CYP450 inhibition via LKMS, the shifted IC50 values were used to determine whether the inhibition of LKMS on CYP450 was time-dependent. […] The above mixture was then incubated for another 30 min in the presence of NADPH. The concentrations of LKMS were designated as 0.2, 2, 4, 6, 8, 10, 20, 40, and 80 μM, and the concentration of each probe substrate was based on each Km value. The concentrations of the probe substrates of CYP2A6, CYP2B6, and CYP2D6 were at single concentrations approximating their Km values.

The target in data set [5] is T2, CYP2B6. Described as above. On the procedure: as §4
The target of data set [6] is T3, CYP2D6. The data set is described as above. On the procedure:
as §4

T1 sequence (Q9MZY0 whole entry): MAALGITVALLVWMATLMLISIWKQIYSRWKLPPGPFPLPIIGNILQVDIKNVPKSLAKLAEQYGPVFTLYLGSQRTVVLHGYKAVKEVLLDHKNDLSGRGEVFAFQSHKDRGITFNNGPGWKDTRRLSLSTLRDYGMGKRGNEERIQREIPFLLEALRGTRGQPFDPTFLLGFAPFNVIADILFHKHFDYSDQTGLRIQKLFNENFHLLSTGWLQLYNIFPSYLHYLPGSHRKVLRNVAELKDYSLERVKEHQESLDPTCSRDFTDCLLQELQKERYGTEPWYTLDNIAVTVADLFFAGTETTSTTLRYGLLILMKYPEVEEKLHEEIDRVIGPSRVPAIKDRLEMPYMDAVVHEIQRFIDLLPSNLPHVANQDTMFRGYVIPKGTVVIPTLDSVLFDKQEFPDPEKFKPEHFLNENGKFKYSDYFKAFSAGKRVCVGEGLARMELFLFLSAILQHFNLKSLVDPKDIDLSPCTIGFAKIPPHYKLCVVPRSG

With Lekethromycin [LKMS], the IC50 on CYP2E1 is above 200 µM; at CYP2D6 [3] (dog liver microsomes, dextromethorphan O-demethylation, probe at Km, 15 min, 0.2 mg/mL protein, n = 3) it was 39.7 µM; in [4] it was above 200 µM; in the data set on CYP2C9, above 200 µM. The Mode of inhibition result is given as “mixed way” at CYP2B6 [1] (CYP2B6, Lineweaver-Burk plots) and “mixed way” at CYP2D6 [3] (CYP2D6, Lineweaver-Burk plots). Besides, the Ki on CYP2B6 [1] (CYP2B6, dog liver microsomes, Lineweaver-Burk and secondary (slope) plot, n = 2, read-out: Ki (inhibition constant)) was found to be 59.4 µM; at CYP2D6 [3] (CYP2D6, dog liver microsomes, Lineweaver-Burk and secondary (slope) plot, n = 2, read-out: Ki (inhibition constant)) it was 64.9 µM. Further, the “αKi (alpha inhibition constant)” value at CYP2B6 [1] (CYP2B6, dog liver microsomes, secondary (intercept) plot, n = 2) stood at 12.07 µM; on CYP2D6 [3] (CYP2D6, dog liver microsomes, secondary (intercept) plot, n = 2), 279.6 µM. For the same substance, the “Decrease of biotransformation rate of LKMS” value in [2] (CYP1A2 inhibitor α-naphthoflavone 2 μM), in [2] (CYP2A6 inhibitor pilocarpine 8 μM), in data set [2] (CYP2B6 inhibitor Thio-TEPA 6 μM), in [2] (CYP2C9 inhibitor sulfaphenazole 6 μM) and in data set [2] (CYP2E1 inhibitor sodium diethyldithiocarbamate 20 μM) was “about 50%” each time. In addition, the “IC50 fold-shift, Shift Ratio (−NADPH/+NADPH)” value with CYP2A6 (CYP2A6, 30 min preincubation at 37 °C with and without NADPH) is 1.29; on CYP2B6 [5] (CYP2B6, 30 min preincubation at 37 °C with and without NADPH) it was 0.88; on CYP2D6 [6] (CYP2D6, 30 min preincubation at 37 °C with and without NADPH), 1.10. Further, the Time-dependent inhibition entry with CYP2A6 (CYP2A6, judged from IC50 fold-shift <1.5) is recorded as “might not be a time-dependent inhibitor”; on CYP2B6 [5] (CYP2B6, judged from IC50 fold-shift <1.5), “might not be a time-dependent inhibitor”; at CYP2D6 [6] (CYP2D6, judged from IC50 fold-shift <1.5) it was “might not be a time-dependent inhibitor”.
